Values quoted from earlier work in patent publication US5006510A, “Method for relieving chronic pain with a somatostatin analog composition” (priority 1989, dated 1991).
Where two headings read alike, the source gives them in different places.

Columns and labels:
[1] = applied topically with N-decylmethylsulfoxide; human skin
[2] = applied topically with N-decylmethylsulfoxide; mouse skin

For C[C@@H](O)[C@@H]1NC(=O)[C@H](CCCCN)NC(=O)[C@@H](Cc2c[nH]c3ccccc23)NC(=O)[C@H](Cc2ccccc2)NC(=O)[C@@H](NC(=O)[C@H](N)Cc2ccccc2)CSSC[C@@H](C(=O)N[C@H](CO)[C@@H](C)O)NC1=O [octreotide, octreotide acetate], which skin permeation [1] is on record?
The skin permeation was “permeates both human and mouse skin”.

And the skin permeation [2]?
The skin permeation was “permeates both human and mouse skin”.
